Results published in US5610174A, “Use of α1A -selective adrenoceptor agonists for the treatment of urinary incontinence” (priority 1995, dated 1997).
Like-named read-outs stand apart in the source and are kept apart here.

Assays:
[1] = molecular target: T1, human α2B adrenoceptor (Homo sapiens, UniProt P18089); experiment: Inhibition of forskolin stimulated adenylyl cyclase, α2B; assay type: cell-based; parameters: expressed in transfected cells; host or cells: Y1 cells, line Ya2B-2 (ATCC CRL 11888); details: for Emax: read-out: intrinsic activity (i.a.) α2B
T1 sequence (P18089 1-450): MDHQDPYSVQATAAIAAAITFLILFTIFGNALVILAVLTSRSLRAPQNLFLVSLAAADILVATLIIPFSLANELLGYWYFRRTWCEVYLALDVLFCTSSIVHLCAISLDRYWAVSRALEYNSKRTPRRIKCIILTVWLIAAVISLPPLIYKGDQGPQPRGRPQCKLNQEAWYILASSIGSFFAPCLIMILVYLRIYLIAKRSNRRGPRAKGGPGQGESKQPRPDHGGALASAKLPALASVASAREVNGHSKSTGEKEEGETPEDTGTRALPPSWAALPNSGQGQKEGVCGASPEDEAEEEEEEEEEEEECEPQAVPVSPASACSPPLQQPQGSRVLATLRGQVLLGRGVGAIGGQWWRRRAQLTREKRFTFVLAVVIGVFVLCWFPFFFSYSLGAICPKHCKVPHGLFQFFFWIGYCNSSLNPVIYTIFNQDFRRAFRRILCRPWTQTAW
Description: α2 -Adrenoceptor-Mediated Inhibition of Forskolin Stimulated Adenylyl Cyclase
The agonist activity of test compounds was assayed by measuring their ability to inhibit adenylyl cyclase in cells stably transfected with each of the three cloned human α2 -adrenoceptors. LM(tk-) cells expressing the α2A - or the α2C -, as well as Y1 cells expressing the α2B -adrenoceptor were used. […] The formation of cyclic AMP was measured in cultures incubated with DMEM containing 1 mM theophylline. Twelve concentrations of the test compounds (from 10 pM to 100 μM) were added to the incubation medium and incubated at 37° C. for 20 min. Following this incubation step, 10 μM forskolin was added to stimulate the formation of cyclic AMP, and the cultures were incubated for another 10 min. The reaction was stopped by replacing the incubation medium with 100 mM HCl . The intracellular levels of cyclic AMP were measured by radioimmunoassay. The data from concentration-response curves was fitted to a four-parameter logistic equation, by non-linear regression analysis, to determine the pEC50 and intrinsic activity.

[2] = molecular target: T2, human α1C adrenoceptor (Homo sapiens, UniProt P35348); experiment: cell-based; assay type: cell-based; details: for Emax: read-out: intrinsic activity (i.a.) α1C
T2 sequence (P35348 1-466): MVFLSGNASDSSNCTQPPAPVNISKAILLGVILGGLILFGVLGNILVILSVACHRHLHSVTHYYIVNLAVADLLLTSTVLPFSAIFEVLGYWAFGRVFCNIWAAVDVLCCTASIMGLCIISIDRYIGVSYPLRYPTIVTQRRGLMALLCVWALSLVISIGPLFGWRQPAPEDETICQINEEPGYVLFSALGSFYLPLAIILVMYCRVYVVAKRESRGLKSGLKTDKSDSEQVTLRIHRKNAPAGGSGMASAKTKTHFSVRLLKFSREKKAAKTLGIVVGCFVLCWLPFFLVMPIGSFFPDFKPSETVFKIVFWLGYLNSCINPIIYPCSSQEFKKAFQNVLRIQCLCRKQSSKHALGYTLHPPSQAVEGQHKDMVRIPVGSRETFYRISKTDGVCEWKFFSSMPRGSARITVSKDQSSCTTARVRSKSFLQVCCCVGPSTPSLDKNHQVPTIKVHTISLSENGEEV
Description: α1 -Adrenoceptor-Mediated Phosphoinositide Accumulation in Cultured Cell Lines
The agonist activity of test compounds was assayed by measuring their ability to generate phosphoinositide production in cells stably transfected with each of the three cloned human α1 -adrenoceptor subtypes. Cells were plated in 96-well plates and grown to confluence. The day before the assay the growth medium was changed to 100 μl of medium containing 1% serum and 0.5 μCi [^3 H] myo-inositol, and the plates were incubated overnight in a CO2 incubator (5% CO2 at 37° C.). Immediately before the assay, the medium was removed and replaced by 200 μl of PBS containing 10 mM LiCl, and the cells were equilibrated with the new medium for 20 min. During this interval cells were also equilibrated with the antagonist, added as 10 μl aliquot of a 20-fold concentrated solution in PBS.
The [^3 H] inositol-phosphate (IP) accumulation was started by adding 10 μl of a solution containing the agonist. To the first well 10 μl were added to measure basal accumulation, and 11 different concentrations of agonist were assayed in the following 11 wells of each plate row. All assays were performed in duplicate by repeating the same additions in two consecutive plate rows. The plates were incubated in a CO2 incubator for 1 hr. The reaction was terminated by adding 15 μl of 50% (v/v) trichloroacetic acid (TCA), followed by a 40 min incubation at 4° C.
After neutralizing TCA with 40 μl of 1 M Tris, the content of the wells was transferred to a Multiscreen HV filter plate (Millipore) containing Dowex AG1-X8 (200-400 mesh, formate form). The filter plates were prepared adding 200 μl of Dowex AG1-X8 suspension (50% v/v, water:resin) to each well. The filter plates were placed on a vacuum manifold to wash or eluted the resin bed. Each well was washed 2 times with 200 μl of water, followed by 2×200 μ of 5 mM sodium tetraborate/60 mM ammonium formate. The [3H] IPs were eluted into empty 96-well plates with 200 μl of 1.2 M ammonium formate/0.1 formic acid. The content of the wells was added to 3 mls of scintillation cocktail, and the radioactivity was determined by liquid scintillation counting.

[3] = molecular target: T2, human α1C adrenoceptor; experiment: biochemical; assay type: binding
Description: These cell lines were prepared by transfecting the cloned cDNA or cloned genomic DNA or constructs containing both genomic DNA and cDNA encoding the human α-adrenoceptors as follows:
The construct involved ligating three partial overlapping fragments: a 5' 0.6 kb HincII genomic clone, a central 1.8 EcoRI hippocampal cDNA clone, and a 3' 0.6 Kb PstI genomic clone. The hippocampal cDNA fragment overlaps with the 5' and 3' genomic clones so that the HincII and PstI sites at the 5' and 3' ends of the cDNA clone, respectively, were utilized for ligation. This full-length clone was cloned into the KpnI site of the expression vector, using the 5' and 3' KpnI sites of the fragment, derived from vector (i.e., pBluescript) and 3'-untranslated sequences, respectively. Stable cell lines were obtained as described above.
Transfected cells from culture flasks were scraped into 5 ml of 5 mM Tris-HCl, 5 mM EDTA, pH 7.5, and lysed by sonication. The cell lysates were centrifuged at 1000 rpm. for 5 min at 4° C., and the supernatant was centrifuged at 30,000 ×g for 20 min at 4° C. The pellet was suspended in 50 mM Tris-HCl , 1 mM MgCl2, and 0.1% ascorbic acid at pH 7.5. […] The reaction was stopped by filtration through GF/B filters using a cell harvester.

[4] = agonist, inhibition of forskolin stimulated adenylyl cyclase, read-out: pEC50 α2B (converted)
[5] = relative to reference full agonist (e.g., norepinephrine = unity)
[6] = agonist, phosphoinositide accumulation, read-out: pEC50 α1C (converted)

SMILES: CS(=O)(=O)Nc1c(O)ccc2c1CCCC2C1=NCCN1 (racemic) [Compound A-61603, (±)-N-[5-(4,5-Dihydro-1H-imidazol-2-yl)-2-hydroxy-5,6,7,8-tetra-hydronaphthalen-1-yl]methanesulfonamide]
- EC50 [1, 4]: 0.0794 µM
- Emax [1, 5]: 80%
- Emax [2, 5]: 120%
- stimulation of inositol phosphate production, α1C ([2]; result in words): fully stimulate

SMILES: COc1ccc(OC)c(C(O)CN)c1 (racemic) [ST-1059, (±)-2-Amino-1-(2, 5 dimethoxyphenyl) ethanol]
- EC50 [1]: 0.00251 µM
- Emax [1]: 60%
- EC50 [2]: 2 µM
- Emax [2, 5]: 90%
- Ki [3]: 7.94 µM

SMILES: COc1ccc(SC)c2c1C[C@@H]1[C@@H](C2)OCCN1C (relative stereo) [SDZ NVI-085, (±)-trans-4-Methyl-6-methoxy-9-thiomethoxy-3,4,4a, 5,10,10a-hexahydro-2H-naphtho[2,3-b][1,4]oxazine]
- EC50 [1, 4]: > 100 µM
- Emax [1]: 0%
- EC50 [2, 6]: 0.398 µM
- Emax [2, 5]: 110%
- Ki ([3]; Table 3, agonists, read-out: pKi α1C (converted)): 1.26 µM

SMILES: CN[C@@H](C)[C@H](O)c1ccccc1 [(-)-ephedrine]
- EC50 [1]: 0.251 µM
- Emax [1]: 40%
- EC50 [2, 6]: 100 µM
- Emax [2, 5]: 10%
- Ki [3]: 25.1 µM

SMILES: C[C@H](N)[C@H](O)c1ccccc1 [(-)-norephedrine]
- EC50 [1]: 0.794 µM
- Emax [1]: 50%
- EC50 [2, 6]: 50.1 µM
- Emax [2, 5]: 40%
- Ki [3]: 15.8 µM

SMILES: CNC[C@H](O)c1cccc(O)c1 [(-)-phenylephrine]
- intrinsic activity (i.a.) α2B [1, 5]: 0.8
- Emax [2, 5]: 90%

SMILES: COc1cc2c(cc1OC)CN(c1cc(N)c3cc(OC)c(OC)cc3n1)CC2 [Abanoquil, 2-(6,7-Dimethoxy-3,4-dihydro-1H-isoquinolin-2-yl)-6,7-dimethoxyquinolin-4-ylamine hemifumarate hydrate]
- pKI (antagonist affinity, 3H-prazosin binding) hα1C ([3]; Table 2, antagonists, versus 3H-prazosin): 10.4

SMILES: COc1ccccc1N1CCN(CCCNc2c(C)c(=O)n(C)c(=O)n2C)CC1 [Compound 5-MU]
- Ki ([3]; Table 2, antagonists, versus 3H-prazosin, read-out: pKI (antagonist affinity, 3H-prazosin binding) hα1C (converted)): 0.002 µM

SMILES: CNCCc1ccc(O)c(NS(C)(=O)=O)c1 [SK&F 102652]
- Emax [1]: 90%
- stimulation of inositol phosphate production, α1C [2]: fully stimulate
- Emax [2]: 110%
